Measurements: patent publication US12139499B2, “Heteroaryl compounds for treating Huntington's disease” (PTC THERAPEUTICS, INC., priority 2018, dated 2024)

System: Endogenous Huntingtin Protein
Assay: Endogenous Huntingtin Protein Assay (ELISA-based MSD electrochemiluminescence)
Format: cell-based
Conditions: Table 1
Procedure, shortened: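 Sandwich MSD electrochemiluminescence immunoassay. Capture used MW1 (expanded polyglutamine) or MAB2166 antibody coated at 1 μg/mL overnight at 4 °C. Samples were bound overnight at 4 °C, then a rabbit monoclonal detection antibody and SULFO-TAG anti-rabbit, each at 0.25 μg/mL, were applied for 1 h at room temperature.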

Row | Compound | IC50 [µM]
1 | CC[C@]12CC[C@](CC)(CC(N(C)c3nc4cnc(-c5cc(F)c6nc(C)cn6c5)nc4s3)C1)N2 (stereo partly drawn) [Compound 304, N-[(1R,3r,5S)-1,5-diethyl-8-azabicyclo[3.2.1]octan-3-yl]-5-(8-fluoro-2-methylimidazo[1,2-a]pyridin-6-yl)-N-methyl[1,3]thiazolo[5,4-d]pyrimidin-2-amine] | 0.1 to 0.5
2 | Cn1cc2cc(-c3ccc4nc(N5CCC(N)CC5)sc4c3)ccc2n1 [Compound 29, 1-[6-(2-methyl-2H-indazol-5-yl)-1,3-benzothiazol-2-yl]piperidin-4-amine] | 1 to 3
3 | Cc1nc2c(C#N)cc(-c3ncc4nc(N(C)C5CC(C)(C)NC(C)(C)C5)sc4n3)cc2o1 [Compound 275, 2-methyl-6-{2-[methyl(2,2,6,6-tetramethylpiperidin-4-yl)amino][1,3]thiazolo[5,4-d]pyrimidin-5-yl}-1,3-benzoxazole-4-carbonitrile] | ≤ 0.1
4 | Cc1cn2cc(-c3cc4sc(OC5CCNCC5)nc4cn3)cc(F)c2n1 [Compound 314, 6-(8-fluoro-2-methylimidazo[1,2-a]pyridin-6-yl)-2-[(piperidin-4-yl)oxy][1,3]thiazolo[4,5-c]pyridine] | 0.1 to 0.5
5 | Cc1nc2ccc(-c3ccc4nc(C5CCNCC5)sc4c3)cc2[nH]1 [Compound 95, 6-(2-methyl-1H-benzimidazol-6-yl)-2-(piperidin-4-yl)-1,3-benzothiazole] | 0.1 to 0.5
6 | Cn1cc2cc(-c3nc4ncc(C5CCNCC5)cc4s3)ccc2n1 [Compound 43, 2-(2-methyl-2H-indazol-5-yl)-6-(piperidin-4-yl)[1,3]thiazolo[4,5-b]pyridine] | 0.1 to 0.5
7 | CN1[C@@H]2CC[C@H]1C[C@H](Nc1nc3cnc(-c4cc(F)c5nn(C)cc5c4)cc3s1)C2 [Compound 246, 6-(7-fluoro-2-methyl-2H-indazol-5-yl)-N-[(3-exo)-8-methyl-8-azabicyclo[3.2.1]oct-3-yl][1,3]thiazolo[4,5-c]pyridin-2-amine] | 1 to 3
8 | CN(c1nc2cnc(-c3cc(F)c4nn(C)cc4c3)nc2s1)C1CC2CCC(C1)N2 (stereo not drawn) [Compound 218, N-[(3-exo)-8-azabicyclo[3.2.1]oct-3-yl]-5-(7-fluoro-2-methyl-2H-indazol-5-yl)-N-methyl[1,3]thiazolo[5,4-d]pyrimidin-2-amine] | 0.1 to 0.5
9 | Cc1nc2ccc(-c3ccc4nc(C5CCNCC5)sc4c3)cc2o1 [Compound 112, 2-methyl-6-[2-(piperidin-4-yl)-1,3-benzothiazol-6-yl]-1,3-benzoxazole] | 0.1 to 0.5
10 | Cc1cn2nc(-c3cc(F)c4nc(N(C)C5CC6CCC(C5)N6)sc4c3)cc(C(N)=O)c2n1 (stereo not drawn) [Compound 236, 6-{2-[(3-exo)-8-azabicyclo[3.2.1]oct-3-yl(methyl)amino]-4-fluoro-1,3-benzothiazol-6-yl}-2-methylimidazo[1,2-b]pyridazine-8-carboxamide] | ≤ 0.1
11 | Cc1cn2cc(-c3ncc4nc(N(C)C5CC(C)(C)NC(C)(C)C5)sc4n3)cc2c(C)n1 [Compound 265, 5-(1,3-dimethylpyrrolo[1,2-a]pyrazin-7-yl)-N-methyl-N-(2,2,6,6-tetramethylpiperidin-4-yl)[1,3]thiazolo[5,4-d]pyrimidin-2-amine] | ≤ 0.1
12 | Oc1cc(-c2cn[nH]c2)ccc1-c1cc2sc(N3CC4(CCCNC4)C3)nc2nn1 [Compound 338, 2-[6-(2,6-diazaspiro[3.5]nonan-2-yl)[1,3]thiazolo[4,5-c]pyridazin-3-yl]-5-(1H-pyrazol-4-yl)phenol] | 0.5 to 1
13 | CCN1CCC(c2nc3c(F)cc(-c4ccc5nc(C)cn5n4)cc3s2)CC1 [Compound 106, 6-[2-(1-ethylpiperidin-4-yl)-4-fluoro-1,3-benzothiazol-6-yl]-2-methylimidazo[1,2-b]pyridazine] | ≤ 0.1
14 | CN(c1nc2nnc(-c3cc(C#N)c4nn(C)cc4c3)cc2s1)C1CC(C)(C)NC(C)(C)C1 [Compound 158, 2-methyl-5-{6-[methyl(2,2,6,6-tetramethylpiperidin-4-yl)amino][1,3]thiazolo[4,5-c]pyridazin-3-yl}-2H-indazole-7-carbonitrile] | 0.1 to 0.5
15 | CN1CCC2(CCN(c3nc4nnc(-c5ccc(-c6cn[nH]c6)cc5O)cc4s3)C2)C1 (stereo not shown) [Compound 340, 2-[6-(7-methyl-2,7-diazaspiro[4.4]nonan-2-yl)[1,3]thiazolo[4.5-c]pyridazin-3-yl]-5-(1H-pyrazol-4-yl)phenol] | 1 to 3
16 | Cc1cn2nc(-c3cnc4nc(N(C)C5CC(C)(C)NC(C)(C)C5)sc4n3)cc(C)c2n1 [Compound 162, 6-(2,8-dimethylimidazo[1,2-b]pyridazin-6-yl)-N-methyl-N-(2,2,6,6-tetramethylpiperidin-4-yl)[1,3]thiazolo[4,5-b]pyrazin-2-amine] | ≤ 0.1
17 | CN(c1nc2nnc(-c3ccc(-c4cn[nH]c4)cc3O)cc2s1)C1CCNCC1 [Compound 282, 2-{6-[methyl(piperidin-4-yl)amino][1,3]thiazolo[4,5-c]pyridazin-3-yl}-5-(1H-pyrazol-4-yl)phenol] | ≤ 0.1
18 | Cc1cn2cc(-c3cc(F)c4nc(N(C)C5CCNCC5)sc4c3)cc2c(C)n1 [Compound 225, 6-(1,3-dimethylpyrrolo[1,2-a]pyrazin-7-yl)-4-fluoro-N-methyl-N-(piperidin-4-yl)-1,3-benzothiazol-2-amine] | ≤ 0.1
19 | CN(c1nc2nnc(-c3ccc(-c4cn[nH]c4)cc3O)cc2s1)[C@@H]1CCCNC1 [Compound 348, 2-(6-{methyl[(3R)-piperidin-3-yl]amino}[1,3]thiazolo[4,5-c]pyridazin-3-yl)-5-(1H-pyrazol-4-yl)phenol] | 0.1 to 0.5
20 | Oc1cc(-c2cn[nH]c2)ccc1-c1cc2sc(N3CC[C@H]4CNCC[C@H]43)nc2nn1 [Compound 344, 2-{6-[(3aS,7aR)-octahydro-1H-pyrrolo[3,2-c]pyridin-1-yl][1,3]thiazolo[4,5-c]pyridazin-3-yl]-5-(1H-pyrazol-4-yl)phenol] | ≤ 0.1
21 | CN1CC2(C1)CN(c1nc3nnc(-c4ccc(-c5c[nH]nc5F)cc4O)cc3s1)C2 [Compound 385, 5-(3-fluoro-1H-pyrazol-4-yl)-2-[6-(6-methyl-2,6-diazaspiro[3.3]heptan-2-yl)[1,3]thiazolo[4,5-c]pyridazin-3-yl]phenol] | ≤ 0.1
22 | Cc1cn2cc(-c3ccc4nc(C5CCNCC5)sc4c3)cc(C)c2n1 [Compound 114, 6-(2,8-dimethylimidazo[1,2-a]pyridin-6-yl)-2-(piperidin-4-yl)-1,3-benzothiazole] | ≤ 0.1
23 | Cc1cn2nc(-c3cc(F)c4nc(N(C)[C@@H]5CCN[C@@H](C)C5)sc4c3)ccc2n1 [Compound 259, 4-fluoro-N-methyl-6-(2-methylimidazo[1,2-b]pyridazin-6-yl)-N-[(2S,4R)-2-methylpiperidin-4-yl]-1,3-benzothiazol-2-amine] | ≤ 0.1
24 | Cc1cn2cc(-c3cnc4nc(N5CCNCC5)sc4n3)cc(C#N)c2n1 [Compound 173, 2-methyl-6-[2-(piperazin-1-yl)[1,3]thiazolo[4,5-b]pyrazin-6-yl]imidazo[1,2-a]pyridine-8-carbonitrile] | 1 to 3
25 | Oc1cc(-c2cn[nH]c2)ccc1-c1cc2sc(N3CCC34CCCNC4)nc2nn1 (stereo not shown) [Compound 363, 2-[6-(1,6-diazaspiro[3.5]nonan-1-yl)[1,3]thiazolo[4,5-c]pyridazin-3-yl]-5-(1H-pyrazol-4-yl)phenol] | ≤ 0.1
